The test system of assay [1] is influenza A virus (A/PR/8/34). Kind of assay: microbe, parasite or virus in culture. Type of assay: cell-based.
Assay [2] concerns A/PR/8/34 influenza virus. Put plainly: microbe, parasite or virus in culture. Type of assay: cell-based.
Where [3] appears, read: Influenza A virus, PR/8, MDCK, MDCK cells infected with A/PR/8/34, cell protection (CPE), read-out: IC50 (mean all).
The mark [4] stands for this setting: Influenza A virus, PR/8, MDCK, MDCK cells infected with A/PR/8/34, bDNA viral RNA, read-out: EC50 (mean all).
Where [5] appears, read: Influenza A virus, PR/8, MDCK, CPE assay, A/PR/8/34 infected MDCK cells, class symbols, read-out: IC50 (mean all).
[6] abbreviates: Influenza A virus, PR/8, MDCK, bDNA assay, A/PR/8/34 influenza virus replication in MDCK cells, class symbols, read-out: EC50 (mean all).
The mark [7] stands for this setting: Influenza A virus, PR/8, MDCK, mean all, A/PR/8/34 infected MDCK cells, CPE assay, read-out: IC50.
Where [8] appears, read: Influenza A virus, PR/8, MDCK, mean all, A/PR/8/34 influenza virus in MDCK cells, bDNA assay, read-out: EC50.
[9] abbreviates: Influenza A virus, PR/8, MDCK, MDCK cells infected with A/PR/8/34, survival of infected cells, class symbols, read-out: IC50 (mean all).
Where [10] appears, read: Influenza A virus, PR/8, MDCK, MDCK cells infected with A/PR/8/34, replication of influenza virus (viral RNA, bDNA), class symbols, read-out: EC50 (mean all).

The text below walks through data of patent US8829007B2 (priority 2009, dated 2014).

Like-named read-outs stand apart in the source and are kept apart here. Where only a bound is given, the exact number is not on record here.

What is called IC50 is the concentration that inhibits the measured activity by half. What is called EC50 is the concentration that produces a half-maximal response. Regarding `O[C@@H]1CCCC[C@H]1Nc1nc(-c2c[nH]c3ncccc23)ncc1F` (relative stereo) [Compound 207, Trans-2-[[5-fluoro-2-(1H-pyrrolo[2,3-b]pyridin-3-yl)pyrimidin-4-yl]amino]cyclohexanol], the IC50 in assay [1] (setting [3]) was < 5 µM. Also, in assay [2] (setting [4]), the EC50 is < 5 µM.
Turning to `CC(C)(C)c1nc(-c2c[nH]c3ncc(Cl)cc23)nc(N[C@H]2CCCC[C@@H]2C(=O)O)c1F` [Compound 629, (1S,2S)-2-(6-tert-butyl-2-(5-chloro-1H-pyrrolo[2,3-b]pyridin-3-yl)-5-fluoropyrimidin-4-ylamino)cyclohexanecarboxylic acid], in assay [1] (setting [5]), the IC50 is < 5 µM. The EC50 in assay [2] (setting [6]) is < 5 µM.
`COC1CCCCC1Nc1nc(-c2c[nH]c3ncc(Cl)cc23)ncc1F` (stereo not shown) [Compound 412, 2-(5-chloro-1H-pyrrolo[2,3-b]pyridin-3-yl)-5-fluoro-N-(2-methoxycyclohexyl)-pyrimidin-4-amine]: the IC50 in assay [1] (setting [7]) was < 5 µM. The EC50 in assay [2] (setting [8]) is < 5 µM.
With `CN1CCC[C@H](Nc2nc(-c3c[nH]c4ncc(Cl)cc34)ncc2F)C1=O` [Compound 397], the IC50 in assay [1] (setting [7]) is < 5 µM. Also, in assay [2] (setting [8]), the half-maximal effective concentration (EC50) is < 5 µM.
Take `CC(=O)OCC(=O)N1CCC[C@H](CNc2nc(-c3c[nH]c4ncc(Cl)cc34)ncc2F)C1` [Compound 110, (R)-2-(3-((2-(5-chloro-1H-pyrrolo[2,3-b]pyridin-3-yl)-5-fluoropyrimidin-4-ylamino)methyl)piperidin-1-yl)-2-oxoethyl ethanoate]: the IC50 in assay [1] (setting [3]) is < 5 µM. Further, in assay [2] (setting [4]), the EC50 was < 5 µM.
On to `OC(CN1CCCC(Nc2nc(-c3c[nH]c4ncc(Cl)cc34)ncc2F)C1)C(F)(F)F` (stereo not shown) [Compound 614], for which the IC50 in assay [1] (CPE assay, A/PR/8/34 infected MDCK cells, class symbols, read-out: IC50 (mean all)) was < 5 µM. In assay [2] (bDNA assay, A/PR/8/34 influenza virus replication in MDCK cells, class symbols, read-out: EC50 (mean all)), the EC50 is < 5 µM.
Consider `CN1CCCC[C@H](Nc2nc(-c3c[nH]c4ncc(Cl)cc34)ncc2F)C1=O` [Compound 461], for which the IC50 in assay [1] (setting [7]) was < 5 µM. In assay [2] (setting [8]), the concentration for a half-maximal effect (EC50) was < 5 µM.
Consider `COCC(=O)N1CCC[C@@H](CNc2nc(-c3c[nH]c4ncc(Cl)cc34)ncc2F)C1` [Compound 45, (S)-1-(3-((2-(5-chloro-1H-pyrrolo[2,3-b]pyridin-3-yl)-5-fluoropyrimidin-4-ylamino)methyl)piperidin-1-yl)-2-methoxyethanone], for which the IC50 in assay [1] (setting [3]) was < 5 µM. Moreover, the EC50 in assay [2] (setting [4]) was < 5 µM.
On to `O=C(c1cc(F)cc2c1OCOC2)N1CCC[C@H](CNc2nc(-c3c[nH]c4ncc(Cl)cc34)ncc2F)C1` [Compound 142, (R)-(3-((2-(5-chloro-1H-pyrrolo[2,3-b]pyridin-3-yl)-5-fluoropyrimidin-4-ylamino)methyl)piperidin-1-yl)(6-fluoro-4H-benzo[d][1,3]dioxin-8-yl)methanone], for which, in assay [1] (setting [3]), the IC50 is < 5 µM. The EC50 in assay [2] (setting [4]) was < 5 µM.
With `CC1(C(=O)N2CCC[C@H](Nc3nc(-c4c[nH]c5ncc(Cl)cc45)ncc3F)C2)COC1` [Compound 444], the IC50 in assay [1] (setting [7]) is < 5 µM. In addition, in assay [2] (setting [8]), the EC50 was < 5 µM.
Consider `OCC(O)CN1CCCC(Nc2nc(-c3c[nH]c4ncc(Cl)cc34)ncc2F)C1` [Compound 525, 3-((S)-3-((2-(5-chloro-1H-pyrrolo[2,3-b]pyridin-3-yl)-5-fluoropyrimidin-4-ylamino)piperidin-1-yl)propane-1,2-diol], for which, in assay [1] (setting [9]), the IC50 is < 5 µM. The EC50 in assay [2] (setting [10]) was < 5 µM.
As to `CC(C)(C(=O)NC1CC1)N1CCC[C@H](Nc2nc(-c3c[nH]c4ncc(Cl)cc34)ncc2F)C1` [Compound 602], the 50% inhibitory concentration (IC50) in assay [1] (setting [5]) was < 5 µM. The EC50 in assay [2] (setting [6]) is < 5 µM.
As to `O=C(O)[C@@H]1CCCC[C@@H]1Nc1nc(-c2c[nH]c3ncc(Cl)cc23)ncc1F` (relative stereo) [Compound 554], the IC50 in assay [1] (read-out: IC50 (mean all)) was > 10 µM. In addition, in assay [2] ([…], replication of influenza virus (viral RNA, bDNA), class symbols, read-out: EC50 (mean all)), the EC50 lay in the range of 5 to 10 µM.
In the case of `O=C1NCCCC[C@@H]1Nc1nc(-c2c[nH]c3ncc(C(F)(F)F)cc23)ncc1F` [Compound 502, (S)-3-(5-fluoro-2-(5-(trifluoromethyl)-1H-pyrrolo[2,3-b]pyridin-3-yl)pyrimidin-4-ylamino)azepan-2-one], the IC50 in assay [1] (setting [9]) was < 5 µM. Further, the EC50 in assay [2] (setting [10]) was < 5 µM.
